# In article PMC3344910 (Bioorganic & medicinal chemistry, 2012):
# Read-outs that look alike come from different tables or passages of the source.
# Experiments:
# KOP receptors [1] = biological target: T1, KOP receptors (Homo sapiens, UniProt P41145); assay: biochemical; type: biochemical
# KOP receptors [2] = biological target: T1, KOP receptors; conditions: read-out: KOP Ki, previous report; cited from earlier work
# KOP receptors [3] = biological target: T1, KOP receptors; assay: biochemical; type: binding
# KOP receptors [4] = biological target: T1, KOP receptors; conditions: compared to 2 (U50,488) ref 32; cited from earlier work
# KOP receptors [5] = biological target: T1, KOP receptors; conditions: compared to 1 ref 48; cited from earlier work
# KOP receptors [6] = biological target: T1, KOP receptors; type: cell-based
# human MOP receptor = human MOP receptor (Homo sapiens, UniProt P35372); assay: biochemical; type: binding
# human MOP receptor, sequence (P35372 whole entry): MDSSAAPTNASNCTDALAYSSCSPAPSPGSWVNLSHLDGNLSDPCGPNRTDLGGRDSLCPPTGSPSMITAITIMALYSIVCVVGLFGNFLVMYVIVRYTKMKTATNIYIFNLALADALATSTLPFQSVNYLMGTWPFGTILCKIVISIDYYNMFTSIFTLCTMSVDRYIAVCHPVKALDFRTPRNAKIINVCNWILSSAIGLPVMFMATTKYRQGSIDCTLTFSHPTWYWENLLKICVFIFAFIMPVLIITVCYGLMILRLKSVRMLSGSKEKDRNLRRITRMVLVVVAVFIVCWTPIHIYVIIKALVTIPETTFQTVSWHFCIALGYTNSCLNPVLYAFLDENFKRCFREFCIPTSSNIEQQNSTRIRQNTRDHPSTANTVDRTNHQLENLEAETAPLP
# human DOP receptor = human DOP receptor (Homo sapiens, UniProt P41143); assay: biochemical; type: binding
# human DOP receptor, sequence (P41143 whole entry): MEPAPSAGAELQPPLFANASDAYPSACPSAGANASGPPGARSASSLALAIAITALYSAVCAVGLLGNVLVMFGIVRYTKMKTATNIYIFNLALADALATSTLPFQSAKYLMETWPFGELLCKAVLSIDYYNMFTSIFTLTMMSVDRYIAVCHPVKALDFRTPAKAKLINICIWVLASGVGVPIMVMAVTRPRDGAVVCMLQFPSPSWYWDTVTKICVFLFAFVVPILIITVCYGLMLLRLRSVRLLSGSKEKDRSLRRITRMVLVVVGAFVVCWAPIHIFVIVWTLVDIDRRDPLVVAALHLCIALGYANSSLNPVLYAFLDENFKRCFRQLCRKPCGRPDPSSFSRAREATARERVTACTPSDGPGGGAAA
# T1 sequence (P41145 whole entry): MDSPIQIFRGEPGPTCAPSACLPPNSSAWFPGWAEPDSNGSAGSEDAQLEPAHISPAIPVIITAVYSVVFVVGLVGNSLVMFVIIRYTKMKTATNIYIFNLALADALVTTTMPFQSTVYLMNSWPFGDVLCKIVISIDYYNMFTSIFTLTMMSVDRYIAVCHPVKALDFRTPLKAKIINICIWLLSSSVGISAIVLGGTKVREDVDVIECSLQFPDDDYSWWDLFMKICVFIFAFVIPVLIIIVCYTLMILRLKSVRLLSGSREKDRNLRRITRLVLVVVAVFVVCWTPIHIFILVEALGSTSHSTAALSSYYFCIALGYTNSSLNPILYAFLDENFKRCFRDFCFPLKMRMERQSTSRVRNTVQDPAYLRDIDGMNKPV
smiles,measurement,setting,value
"COC(=O)[C@@H]1C[C@H](OC(C)=O)C(=O)[C@H]2[C@@]1(C)CC[C@H]1C(=O)O[C@H](C(=O)c3ccsc3)C[C@]21C [Compound 26, (2S,4aR,6aR,7R,9S,10aS,10bR)-methyl 9-acetoxy-6a,10b-dimethyl-4,10-dioxo-2-(thiophene-3-carbonyl)dodecahydro-1H-benzo[f]isochromene-7-carboxylate]",more potent than 25 as an agonist in the [35S]GTP-γ-S assay,KOP receptors [1],approximately 3 fold
"COC(=O)[C@@H]1C[C@H](OC(C)=O)C(=O)[C@H]2[C@@]1(C)CC[C@H]1C(=O)O[C@H](C(=O)c3ccco3)C[C@]21C [Compound 23, (2S,4aR,6aR,7R,9S,10aS,10bR)-methyl 9-acetoxy-2-(furan-2-carbonyl)-6a,10b-dimethyl-4,10-dioxododecahydro-1H-benzo[f]isochromene-7-carboxylate]",Ki,KOP receptors [2],> 1000 nM
"COC(=O)[C@@H]1C[C@H](OC(C)=O)C(=O)[C@H]2[C@@]1(C)CC[C@H]1C(=O)O[C@H](C(=O)c3cccc(C#N)c3)C[C@]21C [Compound 20, (2S,4aR,6aR,7R,9S,10aS,10bR)-methyl 9-acetoxy-2-(3-cyanobenzoyl)-6a,10b-dimethyl-4,10-dioxododecahydro-1H-benzo[f]isochromene-7-carboxylate]",decreased KOP affinity compared to 19,KOP receptors [3],6 fold
"COC(=O)[C@@H]1C[C@H](OC(C)=O)C(=O)[C@H]2[C@@]1(C)CC[C@H]1C(=O)O[C@H](C(=O)c3ccccc3)C[C@]21C [Compound 12, (2S,4aR,6aR,7R,9S,10aS,10bR)-methyl 9-acetoxy-2-benzoyl-6a,10b-dimethyl-4,10-dioxododecahydro-1H-benzo[f]isochromene-7-carboxylate]",EC50,KOP receptors [1],1370 ± 180 nM
"COC(=O)[C@@H]1C[C@H](OC(C)=O)C(=O)[C@H]2[C@@]1(C)CC[C@H]1C(=O)O[C@@H](c3ccoc3)C[C@]21C [Compound 3, (2R,4aR,6aR,7R,9S,10aS,10bR)-methyl 9-acetoxy-2-(furan-3-yl)-6a,10b-dimethyl-4,10-dioxododecahydro-1H-benzo[f]isochromene-7-carboxylate]",less potent than 1 in the [35S]GTP-γ-S assay,KOP receptors [1],18 fold
same,"Emax, [35S]GTP-γ-S assay, previous report",KOP receptors [4],73 ± 6
same,"Emax, β-arrestin 2 DiscoveRx assay",KOP receptors [5],126 ± 10
"COC(=O)[C@@H]1C[C@H](OC(C)=O)C(=O)[C@H]2[C@@]1(C)CC[C@H]1C(=O)O[C@H](c3ccco3)C[C@]21C [Compound 31, (2S,4aR,6aR,7R,9S,10aS,10bR)-methyl 9-acetoxy-2-(furan-2-yl)-6a,10b-dimethyl-4,10-di-oxododecahydro-1H-benzo[f]isochromene-7-carboxylate]",Ki,KOP receptors [3],8.7 ± 0.4 nM
same,increase in affinity at KOP receptors compared to 23,KOP receptors [3],9 fold
same,"decrease in potency compared to 1, Ca2+ mobilization",KOP receptors [6],2 fold
same,less potent than 1 in the [35S]GTP-γ-S assay,KOP receptors [1],3 fold
"COC(=O)[C@@H]1C[C@H](OC(C)=O)C(=O)[C@H]2[C@@]1(C)CC[C@H]1C(=O)O[C@H](C(=O)c3cccc(C(N)=O)c3)C[C@]21C [Compound 19, (2S,4aR,6aR,7R,9S,10aS,10bR)-methyl 9-acetoxy-2-(3-carbamoylbenzoyl)-6a,10b-dimethyl-4,10-dioxododecahydro-1H-benzo[f]isochromene-7-carboxylate]",increased KOP affinity compared to 17,KOP receptors [3],approximately 3 fold
same,less potent than 1 in the [35S]GTP-γ-S assay,KOP receptors [1],18 fold
"C/C=C\C(=O)[C@@H]1C[C@]2(C)[C@H]3C(=O)[C@@H](OC(C)=O)C[C@@H](C(=O)OC)[C@]3(C)CC[C@H]2C(=O)O1 [Compound 30, (2S,4aR,6aR,7R,9S,10aS,10bR)-methyl 9-acetoxy-2-((Z)-but-2-enoyl)-6a,10b-dimethyl-4,10-dioxododecahydro-1H-benzo[f]isochromene-7-carboxylate]",decrease in KOP affinity compared to 12,KOP receptors [3],4 fold
"COC(=O)[C@@H]1C[C@H](OC(C)=O)C(=O)[C@H]2[C@@]1(C)CC[C@H]1C(=O)OC(/C=C\c3ccoc3)C[C@]21C (stereo partly drawn) [Compound 9, (4aR,6aR,7R,9S,10aS,10bR)-methyl 9-acetoxy-2-((Z)-2-(furan-3-yl)vinyl)-6a,10b-dimethyl-4,10-dioxododecahydro-1H-benzo[f]isochromene-7-carboxylate]",Ki,KOP receptors [3],30 ± 4 nM
same,higher affinity for the KOP receptor compared to trans analogue 8,KOP receptors [3],~40 fold
same,EC50,KOP receptors [1],1370 nM
same,Emax,"KOP receptors [1]; read-out: KOP Emax ± SD, stimulation of [35S]GTP-γ-S binding",105 ± 4%
same,Ki,human MOP receptor,2600 nM
same,Ki,human DOP receptor,> 10000 nM
same,remaining activity at 10 µM,human DOP receptor; read-out: DOP percent of control produced by the 10 μM test drug,94%
